These results are taken from patent US6316482A, “Benzamide derivatives having a vasopressin antagonistic activity” (Fujisawa Pharmaceutical Co., Ltd., priority 1996, dated 2001).

For assay [1], the target named is Vasopressin 1 (V1) receptor (Homo sapiens, UniProt P37288). As to the kind of experiment: Vasopressin 1 (V1) receptor binding. To be noted: platelet membranes from normal subjects; competition vs 1.5 nM 3H-vasopressin; 15 minutes at 30° C.; pH 7.4.
A further assay addresses human V2 receptor (Homo sapiens, UniProt P30518). As to the kind of experiment: Vasopressin 2 (V2) receptor binding. To be noted: membranes of CHO cells expressing human V2 receptor; competition vs 0.5 nM 3H-vasopressin; 2 hours at 22° C.; pH 7.4.

pIC50: −log10 of the molar value. Structures can show the parent of a compound that is named as a salt.

Vasopressin 1 (V1) receptor, sequence (P37288 whole entry): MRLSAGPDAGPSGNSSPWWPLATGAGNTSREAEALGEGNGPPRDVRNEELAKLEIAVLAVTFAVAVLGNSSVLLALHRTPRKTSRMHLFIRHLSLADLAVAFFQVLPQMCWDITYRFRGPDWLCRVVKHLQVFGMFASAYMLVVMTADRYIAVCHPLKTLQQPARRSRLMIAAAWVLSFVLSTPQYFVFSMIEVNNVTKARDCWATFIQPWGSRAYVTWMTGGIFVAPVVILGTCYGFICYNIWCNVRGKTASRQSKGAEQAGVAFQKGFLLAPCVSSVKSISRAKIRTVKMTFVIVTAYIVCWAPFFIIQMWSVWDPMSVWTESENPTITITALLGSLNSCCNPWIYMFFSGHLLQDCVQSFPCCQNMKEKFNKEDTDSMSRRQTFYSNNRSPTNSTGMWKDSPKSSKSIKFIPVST
human V2 receptor, sequence (P30518 whole entry): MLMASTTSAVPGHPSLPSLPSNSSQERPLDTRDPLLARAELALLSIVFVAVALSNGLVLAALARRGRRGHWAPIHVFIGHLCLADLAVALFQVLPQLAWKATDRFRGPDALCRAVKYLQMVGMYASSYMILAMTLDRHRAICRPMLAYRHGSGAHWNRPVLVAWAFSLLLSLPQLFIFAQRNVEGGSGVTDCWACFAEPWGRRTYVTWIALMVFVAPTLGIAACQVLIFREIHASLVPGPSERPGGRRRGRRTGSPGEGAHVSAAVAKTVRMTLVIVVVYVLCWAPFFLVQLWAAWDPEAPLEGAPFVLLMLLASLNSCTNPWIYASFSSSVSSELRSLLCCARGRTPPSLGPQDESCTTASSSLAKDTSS

With `COc1cc(C(=O)N(C)c2ccc(C)cc2OCCCCCC(=O)N2CCN(C)CC2)ccc1C(=O)Nc1cccc2[nH]c(CN3CCN(C)CC3)nc12` [Example 115-81, 3-Methoxy-N-methyl-N-[4-methyl-2-[5-(4-methylpiperazin-1-yl)carbonylpent-1-yloxy]phenyl]-4-[2-[(4-methyl-piperazin-1-yl)methyl]-1H-benzimidazol-4-yl]-carbamoylbenzamide trihydrochloride], the pIC50 (commonly the negative decadic logarithm of the IC50, by convention in mol/L) in assay [1] is 8.35.

As for `COc1cc(C(=O)N(C)c2ccc(C)cc2OCCCCCC(=O)N2CCN(C)CC2)ccc1NC(=O)c1cccc2[nH]c(CO)nc12` [Example 39-35, 4-(2-Hydroxymethyl-1H-benzimidazol-4-yl)carbonylamino-3-methoxy-N-methyl-N-[4-methyl-2-[5-(4-methylpiperazin-1-yl)carbonylpent-1-yloxy]phenyl]benzamide dihydrochloride], the pIC50 in assay [1] was greater than 9.00; on human V2 receptor, 6.42.

The molecule `COc1cc(C(=O)N(C)c2ccc(C)cc2OCCCCCC(=O)N2CCN(C)CC2)ccc1C(=O)Nc1cccc2[nH]c(C)nc12` [Example 115-71, 3-Methoxy-N-methyl-4-[2-mehtyl-1H-benzimidazol-4-yl]carbamoyl-N-[4-methyl-2-[5-(4-methylpiperazin-1-yl)-carbonylpent-1-yloxy]phenyl]benzamide dihydrochloride] had a pIC50 in assay [1] of 9.15.

Take `COc1cc(C(=O)N(C)c2ccc(C)cc2OCCCCCC(=O)N2CCN(C)CC2)ccc1NC(=O)c1cccc2[nH]c(CN)nc12` [Example 39-27, 4-(2-Aminomethyl-1H-benzimidazol-4-yl)carbonylamino-3-methoxy-N-methyl-N-[4-methyl-2-[5-(4-methylpiperazin-1-yl)carbonylpent-1-yloxy]phenyl]benzamidetrihydrochloride]: the pIC50 in assay [1] is 8.82; on human V2 receptor, 6.34.
